{
  "source": "paper PMC4677828",
  "about": "(Combinatorial chemistry & high throughput screening, 2015)",
  "format_in_all_cases": "biochemical",
  "key": {"HDAC2": {"target": "HDAC2 (Homo sapiens, UniProt Q92769)", "sequence (Q92769 whole entry)": "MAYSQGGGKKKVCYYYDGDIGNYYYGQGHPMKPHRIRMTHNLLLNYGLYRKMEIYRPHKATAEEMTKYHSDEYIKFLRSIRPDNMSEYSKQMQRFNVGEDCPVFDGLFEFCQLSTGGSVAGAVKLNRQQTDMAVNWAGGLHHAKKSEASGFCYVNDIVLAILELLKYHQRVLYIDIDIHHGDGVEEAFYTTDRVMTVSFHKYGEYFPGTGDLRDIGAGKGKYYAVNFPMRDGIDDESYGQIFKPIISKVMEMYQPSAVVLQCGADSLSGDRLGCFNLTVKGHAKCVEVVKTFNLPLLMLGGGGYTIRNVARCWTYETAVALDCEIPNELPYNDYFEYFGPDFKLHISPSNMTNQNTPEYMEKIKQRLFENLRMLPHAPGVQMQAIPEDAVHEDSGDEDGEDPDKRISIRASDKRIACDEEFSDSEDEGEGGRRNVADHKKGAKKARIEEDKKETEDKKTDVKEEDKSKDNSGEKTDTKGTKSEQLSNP", "assay": "fluorogenic HDAC assay", "settings": "5 μL of 200 μM HDAC substrate in 50 μL; 30 min pre-incubation; 37 °C; BSA"}, "HDAC1": {"target": "HDAC1 (Homo sapiens, UniProt Q13547)", "sequence (Q13547 whole entry)": "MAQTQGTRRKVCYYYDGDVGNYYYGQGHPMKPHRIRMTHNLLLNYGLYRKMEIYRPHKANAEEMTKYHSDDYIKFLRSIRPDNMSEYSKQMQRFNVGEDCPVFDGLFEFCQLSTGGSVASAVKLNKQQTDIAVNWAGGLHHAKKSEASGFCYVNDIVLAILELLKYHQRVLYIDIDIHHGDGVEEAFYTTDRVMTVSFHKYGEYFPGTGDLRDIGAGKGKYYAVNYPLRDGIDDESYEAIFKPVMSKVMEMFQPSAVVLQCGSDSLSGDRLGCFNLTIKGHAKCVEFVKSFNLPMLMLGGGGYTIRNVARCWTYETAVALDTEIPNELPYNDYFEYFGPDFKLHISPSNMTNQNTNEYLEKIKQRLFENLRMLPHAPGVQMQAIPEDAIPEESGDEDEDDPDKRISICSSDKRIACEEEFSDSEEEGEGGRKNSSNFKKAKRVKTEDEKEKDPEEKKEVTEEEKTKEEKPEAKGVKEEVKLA", "assay": "single-concentration inhibition assay", "settings": "100 μM inhibitor"}, "HDAC6": {"target": "T1, HDAC6 (Homo sapiens, UniProt Q9UBN7)", "T1 sequence (Q9UBN7 1-1215)": "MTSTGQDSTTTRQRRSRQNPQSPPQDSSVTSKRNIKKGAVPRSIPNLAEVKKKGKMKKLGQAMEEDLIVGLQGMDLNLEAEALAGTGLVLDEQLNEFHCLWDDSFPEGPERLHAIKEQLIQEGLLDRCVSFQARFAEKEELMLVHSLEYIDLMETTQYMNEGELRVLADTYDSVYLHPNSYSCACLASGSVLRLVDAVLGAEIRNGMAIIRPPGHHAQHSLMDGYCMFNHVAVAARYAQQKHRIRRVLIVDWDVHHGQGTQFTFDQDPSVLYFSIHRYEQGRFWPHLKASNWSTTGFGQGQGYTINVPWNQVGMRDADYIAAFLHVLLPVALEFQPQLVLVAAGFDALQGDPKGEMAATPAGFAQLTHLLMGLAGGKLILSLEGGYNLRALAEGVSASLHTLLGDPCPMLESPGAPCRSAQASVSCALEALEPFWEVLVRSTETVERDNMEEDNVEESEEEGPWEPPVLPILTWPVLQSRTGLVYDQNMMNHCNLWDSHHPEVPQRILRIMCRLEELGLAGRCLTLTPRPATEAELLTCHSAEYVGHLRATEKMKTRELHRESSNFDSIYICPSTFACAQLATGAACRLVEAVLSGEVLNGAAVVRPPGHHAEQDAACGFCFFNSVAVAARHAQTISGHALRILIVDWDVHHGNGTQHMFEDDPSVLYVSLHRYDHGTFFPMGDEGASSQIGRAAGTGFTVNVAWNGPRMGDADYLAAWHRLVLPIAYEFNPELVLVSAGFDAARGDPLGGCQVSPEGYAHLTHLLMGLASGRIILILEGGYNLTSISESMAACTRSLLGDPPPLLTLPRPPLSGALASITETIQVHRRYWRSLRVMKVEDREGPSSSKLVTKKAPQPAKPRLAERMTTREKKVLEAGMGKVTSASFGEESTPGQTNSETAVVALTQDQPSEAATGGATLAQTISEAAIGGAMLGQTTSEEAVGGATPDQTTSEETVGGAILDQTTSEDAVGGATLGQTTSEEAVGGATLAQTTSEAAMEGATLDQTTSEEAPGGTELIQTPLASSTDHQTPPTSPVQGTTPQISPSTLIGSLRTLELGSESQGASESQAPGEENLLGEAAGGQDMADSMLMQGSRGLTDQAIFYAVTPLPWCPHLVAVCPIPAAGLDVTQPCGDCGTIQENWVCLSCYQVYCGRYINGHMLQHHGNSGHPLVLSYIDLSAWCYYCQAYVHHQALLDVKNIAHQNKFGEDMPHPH", "assay": "single-concentration inhibition assay", "settings": "100 μM inhibitor"}},
  "note": "pIC50: −log10 of the molar value.",
  "data": [
    {"substance": "ST088357", "values": [
      {"measurement": "pIC50", "setting": "HDAC2", "value": 4.77},
      {"measurement": "% inhibition at 100 μM", "setting": "HDAC1", "value": 86.90, "unit": "%"},
      {"measurement": "% inhibition at 100 μM", "setting": "HDAC6", "value": 34.28, "unit": "%"}
    ]}
  ]
}
